The results in this text go back to publication PMC11428279, “Exploring Structure–Activity Relationships and Modes of Action of Laterocidine” (ACS Central Science, 2024).

The structures appear in SMILES notation. Converted amounts (≈) assume the structure as drawn. Bridge positions count the residues as written; N and C are the ends. Square brackets hold non-standard residues; d marks the D form. Peptide text beside a SMILES is read from it. * marks the point of attachment. dOrn = NCCC[C@@H](N)C(=O)O; Nonanoyl = CCCCCCCCC(=O)*; Orn = NCCC[C@H](N)C(=O)O

One series has as its system A. baumannii 5075D. It counts as cell-based. Conditions: lacks lipid A in the outer membrane.
Series [1] has as its system Gram-negative strains of P. aeruginosa, A. baumannii, K. pneumoniae, and E. cloacae. It counts as cell-based. On the procedure: (§1) MICs for laterocidine and its various analogues were determined by broth microdilution[49] for the following polymyxin-susceptible ATCC and clinical isolates: P. aeruginosa FADDI-PA022, FADDI-PA001, FADDI-PA025, FADDI-PA070, FADDI-PA060; A. baumannii FADDI-AB134, FADDI-AB034, FADDI-AB030, FADDI-AB174, FADDI-AB241; K. pneumoniae FADDI-KP032, FADDI-KP022, BM1, FADDI-KP065, FADDI-KP064, FADDI-KP003; and E. cloacae FADDI-EC001, FADDI-EC003, and FADDI-EC006. Experiments were performed with cation-adjusted Mueller–Hinton broth (CAMHB) in 96-well polystyrene microtiter plates. Wells were inoculated with 100 μL of bacterial suspension prepared in CAMHB (containing ∼10^6 CFU/mL) and 100 μL of CAMHB containing increasing concentrations of polymyxins (0–32 μg/mL). MIC measurements were performed in duplicate, with the MIC being the lowest concentration at which visible growth was inhibited following 18–20 h of incubation at 37 °C. Bacterial killing kinetics was investigated over 24 h as described previously.[50]

For series [2], the system named is P. aeruginosa PAO1R. As to the kind of experiment: MIC. Type of series: cell-based. The note with it: polymyxin-resistant paired strain of PAO1.
Series [3] has as its system P. aeruginosa PAO1. Kind of series: MIC. Type of series: cell-based. The note with it: polymyxin-susceptible reference strain.
Series [4] concerns P. aeruginosa FADDI-PA070. As to the kind of experiment: Neutropenic murine bloodstream infection model. Type of series: in vivo, P. aeruginosa in mice. The note with it: for Bacteria load in blood: 8 mg/kg iv (free base) 2 h postinoculation, neutropenic mice, 4 h time point, N = 3, mean. The protocol:
(§2) All animal studies were approved by the Monash University Animal Ethics Committee and involved female Swiss mice (22–28 g, 7-week-old) housed in microisolators within a PC2 animal laboratory. Mice were kept under a 12/12 h dark/light cycle at 20–24 °C and 50–70% ambient humidity.
The neutropenic bloodstream infection model was undertaken as previously described.[39] Mice were rendered neutropenic through intraperitoneal injections of cyclophosphamide administered 4 days (150 mg/kg) and 1 day (100 mg/kg) prior to inoculation. Bloodstream infection was established by administering a 50 μL bolus of early log-phase bacterial suspension (4 × 10^8 CFU/mL). Laterocidine, peptide 11, and polymyxin B solutions were prepared in sterile saline at a concentration of 1 mg/mL (free base). Two hours postinoculation, mice (n = 3) were injected intravenously with either polymyxin B at 4 mg/kg (free base), peptide 11 at 8 mg/kg (free base), laterocidine at 8 mg/kg (free base), or saline (control mice). Blood was collected immediately after (0 h) and 4 h after drug administration, serially diluted with sterile saline, and appropriately diluted samples manually plated on nutrient agar prior to overnight incubation at 37 °C. Colonies were counted manually and the bacterial load (log10 CFU/mL) in the blood of each mouse calculated. In vivo efficacy was calculated as the difference between the log10 CFU/mL blood values of treated and control mice 4 h postdosing (Δlog10 CFU/mL blood = log10 [treated] CFU/mL blood–log10[control] CFU/mL blood).[54]

The test system of series [5] is A. baumannii 5075 (wild type). Kind of series: MIC. It counts as cell-based.
A further series relates to female Swiss mice. Kind of series: Acute toxicity in mice (maximum tolerable dose). Type of series: in vivo. The note with it: intravenous bolus via lateral tail vein, free base, N = 3. On the procedure:
as §2
For the acute toxicity studies, peptide 11 and laterocidine solutions were prepared in 0.9% saline and stored at 4 °C before use. All mice were administered an intravenous bolus of one peptide (mg/kg free base) via a lateral tail vein (≤0.1 mL). Following the injection, mice were released back into their respective home cages and individually monitored for 24 h for signs of clinical toxicity. Mice displaying any signs of toxicity were humanely euthanized according to the recommended Euthanasia/Humane Experimental End point Criteria.

Series [6] has as its system P. aeruginosa PAO1. As to the kind of experiment: Static time-kill study. It counts as cell-based. The note with it: 8 × MIC, over 24 h. On the procedure: as §1
Series [7] deals with P. aeruginosa PAO1R. Kind of series: Static time-kill study. The note with it: 8 × MIC, over 24 h. It counts as cell-based. The protocol: as §1
A further series deals with A. baumannii 5075R. It counts as cell-based. The note with it: lipid A modified with phosphoethanolamine.
The subject of another series is P. aeruginosa. Type of series: cell-based. Conditions: compared with native laterocidine. The protocol:
as §1

For a further series, the system named is A. baumannii. Type of series: cell-based. The protocol: as §1
The test system of another series is E. cloacae. Type of series: cell-based. Conditions: compared with native laterocidine. On the procedure:
as §1

The next series concerns K. pneumoniae. Type of series: cell-based. The protocol:
as §1

Series [8] has as its system human kidney proximal tubular (HK-2) cells. As to the kind of experiment: Viability of human kidney proximal tubular cells. Type of series: cell-based. The note with it: 24 h of treatment, fluorescence microscopy, mean ± SD, n = 3. From the text:
The fluorescence microscopy method used to culture HK-2 cells and the use of fluorescence microscopy to determine the percent cell viability (%) following peptide treatment are the same as published previously.[59],[60]

The mark [9] stands for this setting: compared with native laterocidine.

Consider `CCCCCCCCC(=O)N[C@H](CO)C(=O)N[C@H](Cc1ccc(O)cc1)C(=O)N[C@H](Cc1c[nH]c2ccccc12)C(=O)N[C@H](CCCN)C(=O)N[C@@H](CCCN)C(=O)NCC(=O)N[C@H](CCCN)C(=O)N[C@@H](Cc1c[nH]c2ccccc12)C(=O)N[C@@H]1C(=O)N[C@@H]([C@@H](C)CC)C(=O)N[C@@H](CC(N)=O)C(=O)NCC(=O)NCC(=O)O[C@@H]1C` [Peptide 11] (Nonanoyl-[dS][dY][dW][dOrn][Orn]G[dOrn]WTINGG; ester 9-C), for which the “MIC, A. baumannii 5075 D” value against A. baumannii 5075D was 32 µg/mL (≈ 19.9 µM). Moreover, the “MICs against all tested strains (range)” value in [1] (all tested Gram-negative strains) is given as “identical MICs to laterocidine”. Besides, the “MIC, P. aeruginosa PAO1R” value against P. aeruginosa PAO1R [2] is 2 µg/mL (≈ 1.25 µM). Moreover, the “MIC, P. aeruginosa PAO1” value in the series on P. aeruginosa PAO1 [3] is 2 µg/mL (≈ 1.25 µM). Moreover, the figures for the “Bacteria load in blood” value in series [4] and in [4] (listed as peptide 11) were 2.70% and 2.7%, respectively. Besides, in series [4] (murine bloodstream infection model, 8 mg/kg), the “fold increase in antimicrobial activity compared to native laterocidine (peptide 1)” value was 8 fold. In series [5], the “MIC, A. baumannii 5075 S” value worked out at 8 µg/mL (≈ 4.98 µM). Moreover, the “maximum tolerable dose (MTD), Iv (Bolus)” value in the series with female Swiss mice is recorded as 13.2 mg/kg. Also, the “time-kill outcome against P. aeruginosa PAO1” value in the series on P. aeruginosa PAO1 [6] is on record as “substantial bacterial regrowth nevertheless occurred at all concentrations”. Further, the “time-kill outcome against P. aeruginosa PAO1R” value with P. aeruginosa PAO1R [7] is listed as “completely inhibiting the growth”; in the series on P. aeruginosa PAO1R [7] (listed as peptide 11), “no viable bacteria were detected at 24 h”. Moreover, the “MIC, A. baumannii 5075 R” value in the series with A. baumannii 5075R amounted to 32 µg/mL (≈ 19.9 µM).

Turning to `CCCCCCCCC(=O)N[C@H](CO)C(=O)N[C@H](Cc1ccc(O)cc1)C(=O)N[C@H](Cc1c[nH]c2ccccc12)C(=O)N[C@H](CCCN)C(=O)N[C@@H](CCCN)C(=O)NCC(=O)N[C@H](CCCN)C(=O)N[C@@H](Cc1c[nH]c2ccccc12)C(=O)N[C@H]1COC(=O)CNC(=O)CNC(=O)[C@H](CC(N)=O)NC(=O)[C@H]([C@@H](C)CC)NC1=O` [Peptide 15] (Nonanoyl-[dS][dY][dW][dOrn][Orn]G[dOrn]WSINGG; ester 9-C), in the series with P. aeruginosa, the “fold less activity against the two MDR strains of P. aeruginosa” value is reported as 8–16 fold. Moreover, the “MICs against A. baumannii (range over strains)” value in the series with A. baumannii fell in the range of 8 to 32 µg/mL. The “fold increase in MIC (loss of activity) against A. baumannii” value in the series on A. baumannii (setting [9]) is 2–8 fold.

`CCCCCCCCC(=O)N[C@H](CO)C(=O)N[C@H](Cc1ccc(O)cc1)C(=O)N[C@H](Cc1c[nH]c2ccccc12)C(=O)N[C@H](CCCN)C(=O)N[C@@H](CCCN)C(=O)NCC(=O)N[C@H](CCCN)C(=O)N[C@@H](Cc1c[nH]c2ccccc12)C(=O)N[C@@H]1C(=O)N[C@@H]([C@@H](C)CC)C(=O)N[C@@H](CC(N)=O)C(=O)NCC(=O)N[C@@H](C)C(=O)O[C@@H]1C` [Peptide 24] (Nonanoyl-[dS][dY][dW][dOrn][Orn]G[dOrn]WTINGA; ester 9-C): the “fold increase in MIC (loss of activity) against all strains / all species” value in series [1] (setting [9]) is reported as “no more than 1 fold”. The “fold increase in MIC for two E. cloacae strains” value with E. cloacae amounted to 2 fold.

Turning to `CCCCCCCCC(=O)N[C@H](C)C(=O)N[C@H](Cc1ccc(O)cc1)C(=O)N[C@H](Cc1c[nH]c2ccccc12)C(=O)N[C@H](CCCN)C(=O)N[C@@H](CCCN)C(=O)NCC(=O)N[C@H](CCCN)C(=O)N[C@@H](Cc1c[nH]c2ccccc12)C(=O)N[C@@H]1C(=O)N[C@@H]([C@@H](C)CC)C(=O)N[C@@H](CC(N)=O)C(=O)NCC(=O)NCC(=O)O[C@@H]1C` [Peptide 35] (Nonanoyl-[dA][dY][dW][dOrn][Orn]G[dOrn]WTINGG; ester 9-C), the “MICs against K. pneumoniae (range over strains)” value in the series with K. pneumoniae lay within 2 to 32 µg/mL. In addition, the “MICs against A. baumannii (range over strains)” value in the series with A. baumannii is ≥ 32 µg/mL.

With `CC[C@H](C)CCCCC(=O)N[C@@H](CCN)C(=O)N[C@H](C(=O)N[C@@H](CCN)C(=O)N[C@H]1CCNC(=O)[C@H]([C@@H](C)O)NC(=O)[C@H](CCN)NC(=O)[C@H](CCN)NC(=O)[C@H](CC(C)C)NC(=O)[C@@H](Cc2ccccc2)NC(=O)[C@H](CCN)NC1=O)[C@@H](C)O` [polymyxin B, reference compound] (HELM PEPTIDE1{[CC[C@H](C)CCCCC(=O)[*:2]].[Dab].T.[Dab].[Dab].[Dab].[dF].L.[Dab].[Dab].T}$PEPTIDE1,PEPTIDE1,5:R3-11:R2$$$V2.0; N-terminus assumed; bridges inferred), the “MIC, P. aeruginosa PAO1R” value in the series on P. aeruginosa PAO1R [2] amounted to 16 µg/mL (≈ 13.3 µM). Moreover, the “cell viability of HK-2 cells” value in series [8] (0.01 mM) came out at 74.8 ± 2.6%; in series [8] (0.1 mM), 6.4 ± 3.6%. In addition, the “MIC, P. aeruginosa PAO1” value in the series on P. aeruginosa PAO1 [3] amounted to 0.5 µg/mL (≈ 0.415 µM). Further, the “maximum tolerable dose (MTD), Iv (Bolus)” value with female Swiss mice came out at 5 mg/kg. In addition, the “time-kill outcome against P. aeruginosa PAO1” value in the series on P. aeruginosa PAO1 [6] was “no viable bacteria were detected at 1 h, rapid and significant regrowth subsequently occurred”. Further, the “time-kill outcome against P. aeruginosa PAO1R” value in the series with P. aeruginosa PAO1R [7] was “no viable bacteria detected at 8 × MIC on multiple occasions, including at 24 h”.
